Laboratory results: PubChem BioAssay AID1963959 (Molecular Pharmacology Branch, DTP, NCI, 2024)

System: T-47D spheroids with HUVEC/MSC, viability
Test: Anticancer human tumor T-47D cell line growth inhibition [PI3K];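 note: spheroids exposed to agents for seven days before reading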;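 for viability, T/C: percent of DMSO vehicle control luminescence so 100% = untreated growth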
Conditions: for IC50: curve of first compound; for viability, T/C: stronger effect = lower value
In short: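 Three cell types, namely tumor cells, endothelial cells and mesenchymal stem cells, formed each spheroid. Combinations with four PI3K inhibitors were screened at clinically achievable concentrations decreasing by half-log, and spheroid viability was recorded.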

[1] = second compound 0.0316 µM, first compound 0.0316 µM
[2] = second compound 0.0316 µM, first compound 0.1 µM
[3] = second compound 0.0316 µM, first compound 0.316 µM
[4] = second compound 0.0316 µM, first compound 1 µM
[5] = second compound 0.0316 µM, first compound 3.16 µM
[6] = second compound 0.0316 µM, first compound 10 µM
[7] = second compound 0.1 µM, first compound 0.0316 µM
[8] = second compound 0.1 µM, first compound 0.1 µM
[9] = second compound 0.1 µM, first compound 0.316 µM
[10] = second compound 0.1 µM, first compound 1 µM
[11] = second compound 0.1 µM, first compound 3.16 µM
[12] = second compound 0.1 µM, first compound 10 µM
[13] = second compound 0.316 µM, first compound 0.0316 µM
[14] = second compound 0.316 µM, first compound 0.1 µM
[15] = second compound 0.316 µM, first compound 0.316 µM
[16] = second compound 0.316 µM, first compound 1 µM
[17] = second compound 0.316 µM, first compound 3.16 µM
[18] = second compound 0.316 µM, first compound 10 µM
[19] = second compound 1 µM, first compound 0.0316 µM
[20] = second compound 1 µM, first compound 0.1 µM
[21] = second compound 1 µM, first compound 0.316 µM
[22] = second compound 1 µM, first compound 1 µM
[23] = second compound 1 µM, first compound 3.16 µM
[24] = second compound 1 µM, first compound 10 µM
[25] = second compound 3.16 µM, first compound 0.0316 µM
[26] = second compound 3.16 µM, first compound 0.1 µM
[27] = second compound 3.16 µM, first compound 0.316 µM
[28] = second compound 3.16 µM, first compound 1 µM
[29] = second compound 3.16 µM, first compound 3.16 µM
[30] = second compound 3.16 µM, first compound 10 µM
[31] = second compound 10 µM, first compound 0.0316 µM
[32] = second compound 10 µM, first compound 0.1 µM
[33] = second compound 10 µM, first compound 0.316 µM
[34] = second compound 10 µM, first compound 1 µM
[35] = second compound 10 µM, first compound 3.16 µM
[36] = second compound 10 µM, first compound 10 µM

Q: Which results are given for C#Cc1c(F)ccc2cc(O)cc(-c3ncc4c(N5CC6CCC(C5)N6)nc(OCC56CCCN5CC(F)C6)nc4c3F)c12 (stereo not drawn) + CC(Nc1ncnc2nc[nH]c12)c1cc2cccc(Cl)c2c(=O)n1-c1ccccc1?
A: IC50 (second compound 0.0316 µM): > 10 µM; IC50 (second compound 0.1 µM): > 10 µM; IC50 (second compound 0.316 µM): > 10 µM; IC50 (second compound 1 µM): > 10 µM; IC50 (second compound 3.16 µM): > 10 µM; IC50 (second compound 10 µM): > 10 µM; viability, T/C [1]: 101%; viability, T/C [2]: 116%; viability, T/C [3]: 96.5%; viability, T/C [4]: 106%; viability, T/C [5]: 102%; viability, T/C [6]: 104%; viability, T/C [7]: 96.4%; viability, T/C [8]: 86.3%; viability, T/C [9]: 106%; viability, T/C [10]: 106%; viability, T/C [11]: 110%; viability, T/C [12]: 89.3%; viability, T/C [13]: 109%; viability, T/C [14]: 80.9%; viability, T/C [15]: 104%; viability, T/C [16]: 95.2%; viability, T/C [17]: 106%; viability, T/C [18]: 97.8%; viability, T/C [19]: 92.4%; viability, T/C [20]: 116%; viability, T/C [21]: 97.5%; viability, T/C [22]: 76.7%; viability, T/C [23]: 116%; viability, T/C [24]: 93.1%; viability, T/C [25]: 92.6%; viability, T/C [26]: 93.5%; viability, T/C [27]: 101%; viability, T/C [28]: 84.3%; viability, T/C [29]: 86.8%; viability, T/C [30]: 86%; viability, T/C [31]: 107%; viability, T/C [32]: 91.3%; viability, T/C [33]: 109%; viability, T/C [34]: 87.9%; viability, T/C [35]: 97.3%; viability, T/C [36]: 89.6%

Q: What does the source list for C=CC(=O)N1CCN(c2nc(=O)n(-c3c(C)ccnc3C(C)C)c3nc(-c4c(O)cccc4F)c(F)cc23)C(C)C1 (stereo not drawn) + CC(Nc1ncnc2nc[nH]c12)c1cc2cccc(Cl)c2c(=O)n1-c1ccccc1?
A: IC50 (second compound 0.0316 µM): > 10 µM; IC50 (second compound 0.1 µM): > 10 µM; IC50 (second compound 0.316 µM): > 10 µM; IC50 (second compound 1 µM): > 10 µM; IC50 (second compound 3.16 µM): > 10 µM; IC50 (second compound 10 µM): > 10 µM; viability, T/C [1]: 98.2%; viability, T/C [2]: 80.2%; viability, T/C [3]: 93.8%; viability, T/C [4]: 92.8%; viability, T/C [5]: 105%; viability, T/C [6]: 112%; viability, T/C [7]: 121%; viability, T/C [8]: 73%; viability, T/C [9]: 90.1%; viability, T/C [10]: 86.4%; viability, T/C [11]: 115%; viability, T/C [12]: 139%; viability, T/C [13]: 107%; viability, T/C [14]: 110%; viability, T/C [15]: 93.6%; viability, T/C [16]: 85.3%; viability, T/C [17]: 89.6%; viability, T/C [18]: 117%; viability, T/C [19]: 74.3%; viability, T/C [20]: 89.2%; viability, T/C [21]: 88.5%; viability, T/C [22]: 98.4%; viability, T/C [23]: 118%; viability, T/C [24]: 115%; viability, T/C [25]: 75.5%; viability, T/C [26]: 92.3%; viability, T/C [27]: 94%; viability, T/C [28]: 94.1%; viability, T/C [29]: 107%; viability, T/C [30]: 122%; viability, T/C [31]: 100%; viability, T/C [32]: 92.5%; viability, T/C [33]: 94%; viability, T/C [34]: 112%; viability, T/C [35]: 106%; viability, T/C [36]: 113%

Q: For CC(Cn1ccc(-c2ccc(C#N)c(Cl)c2)n1)NC(=O)c1cc(C(C)O)[nH]n1 (stereo not drawn) + CC(Nc1ncnc2nc[nH]c12)c1cc2cccc(Cl)c2c(=O)n1-c1ccccc1, which IC50 (second compound 0.0316 µM) is on record?
A: > 10 µM

Q: What about the IC50 (second compound 0.1 µM) of the same compound?
A: > 10 µM

Q: And the IC50 (second compound 0.316 µM)?
A: > 10 µM

Q: What about the IC50 (second compound 1 µM) of the same compound?
A: > 10 µM

Q: And the IC50 (second compound 3.16 µM)?
A: > 10 µM

Q: What about the IC50 (second compound 10 µM) of the same compound?
A: > 10 µM

Q: What about the viability, T/C [1] of the same compound?
A: 83.6%

Q: What about the viability, T/C [2] of the same compound?
A: 76.1%

Q: What about the viability, T/C [3] of the same compound?
A: 87.8%

Q: And the viability, T/C [4]?
A: 90%

Q: What about the viability, T/C [5] of the same compound?
A: 86.2%

Q: What about the viability, T/C [6] of the same compound?
A: 51%

Q: What about the viability, T/C [7] of the same compound?
A: 93.1%

Q: And the viability, T/C [8]?
A: 80%

Q: What about the viability, T/C [9] of the same compound?
A: 75.7%

Q: And the viability, T/C [10]?
A: 82.3%

Q: And the viability, T/C [11]?
A: 85.6%

Q: And the viability, T/C [12]?
A: 54.9%

Q: What about the viability, T/C [13] of the same compound?
A: 90.7%

Q: What about the viability, T/C [14] of the same compound?
A: 107%

Q: What about the viability, T/C [15] of the same compound?
A: 86.4%

Q: And the viability, T/C [16]?
A: 87.5%

Q: What about the viability, T/C [17] of the same compound?
A: 74.9%

Q: And the viability, T/C [18]?
A: 62.1%

Q: And the viability, T/C [19]?
A: 80.2%

Q: And the viability, T/C [20]?
A: 77.4%

Q: What about the viability, T/C [21] of the same compound?
A: 92.9%

Q: And the viability, T/C [22]?
A: 80.9%

Q: And the viability, T/C [23]?
A: 74.4%

Q: And the viability, T/C [24]?
A: 64%

Q: What about the viability, T/C [25] of the same compound?
A: 84.5%

Q: And the viability, T/C [26]?
A: 86.5%

Q: And the viability, T/C [27]?
A: 87.7%

Q: What about the viability, T/C [28] of the same compound?
A: 85.7%

Q: What about the viability, T/C [29] of the same compound?
A: 81.4%

Q: What about the viability, T/C [30] of the same compound?
A: 52.4%

Q: And the viability, T/C [31]?
A: 80.7%

Q: What about the viability, T/C [32] of the same compound?
A: 84.3%

Q: What about the viability, T/C [33] of the same compound?
A: 75.2%

Q: And the viability, T/C [34]?
A: 80.1%

Q: What about the viability, T/C [35] of the same compound?
A: 72.2%

Q: What about the viability, T/C [36] of the same compound?
A: 56.4%

Q: Which results are given for CC1(C)CCC(Nc2ncc(C(F)(F)F)c(-c3c[nH]c4c(P(C)(C)=O)c(C#N)ccc34)n2)CN1 (stereo not drawn) + CC(Nc1ncnc2nc[nH]c12)c1cc2cccc(Cl)c2c(=O)n1-c1ccccc1?
A: IC50 (second compound 0.0316 µM): > 10 µM; IC50 (second compound 0.1 µM): > 10 µM; IC50 (second compound 0.316 µM): > 10 µM; IC50 (second compound 1 µM): > 10 µM; IC50 (second compound 3.16 µM): > 10 µM; IC50 (second compound 10 µM): 4.1 µM; viability, T/C [1]: 73.3%; viability, T/C [2]: 62.5%; viability, T/C [3]: 67.2%; viability, T/C [4]: 71.9%; viability, T/C [5]: 76.9%; viability, T/C [6]: 48.4%; viability, T/C [7]: 72.9%; viability, T/C [8]: 69.9%; viability, T/C [9]: 69.7%; viability, T/C [10]: 59.8%; viability, T/C [11]: 78.2%; viability, T/C [12]: 48.6%; viability, T/C [13]: 60.4%; viability, T/C [14]: 70.9%; viability, T/C [15]: 66%; viability, T/C [16]: 64.6%; viability, T/C [17]: 75.5%; viability, T/C [18]: 51%; viability, T/C [19]: 62.2%; viability, T/C [20]: 63.5%; viability, T/C [21]: 69.6%; viability, T/C [22]: 57.6%; viability, T/C [23]: 64.2%; viability, T/C [24]: 47.1%; viability, T/C [25]: 57.5%; viability, T/C [26]: 60.3%; viability, T/C [27]: 66.4%; viability, T/C [28]: 60%; viability, T/C [29]: 66.8%; viability, T/C [30]: 40.5%; viability, T/C [31]: 47.4%; viability, T/C [32]: 60.1%; viability, T/C [33]: 64.6%; viability, T/C [34]: 51.7%; viability, T/C [35]: 57.2%; viability, T/C [36]: 29%
